From ChEMBL document CHEMBL4270481, “ALK5 kinase inhibitory activity and synthesis of 2,3,4-substituted 5,5-dimethyl-5,6-dihydro-4H-pyrrolo[1,2-b]pyrazoles” (Eur J Med Chem, 2017) come the findings set out here.

The target in experiment [1] is T1, TGF-beta receptor type-1 (Homo sapiens) (UniProt P36897).
T1 sequence (whole entry): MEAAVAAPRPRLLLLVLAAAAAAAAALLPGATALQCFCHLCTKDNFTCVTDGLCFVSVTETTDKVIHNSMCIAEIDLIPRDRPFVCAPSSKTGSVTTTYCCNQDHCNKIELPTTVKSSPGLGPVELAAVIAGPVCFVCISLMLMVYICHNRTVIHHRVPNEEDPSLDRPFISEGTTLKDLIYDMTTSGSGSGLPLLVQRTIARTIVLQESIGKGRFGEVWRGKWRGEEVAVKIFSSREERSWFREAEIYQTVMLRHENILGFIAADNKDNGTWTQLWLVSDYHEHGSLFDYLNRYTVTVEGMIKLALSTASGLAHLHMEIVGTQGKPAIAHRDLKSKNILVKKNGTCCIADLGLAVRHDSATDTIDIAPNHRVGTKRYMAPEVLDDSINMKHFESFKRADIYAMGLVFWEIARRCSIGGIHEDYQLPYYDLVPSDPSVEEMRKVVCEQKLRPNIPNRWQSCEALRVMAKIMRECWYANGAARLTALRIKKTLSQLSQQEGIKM
Nature of the experiment: Inhibition of human ALK5 expressed in Sf9 insect cells assessed as residual enzyme activity at 1 uM using casein as substrate in presence of [gamma-33P]ATP relative to untreated control.

Experiment [2] addresses Homeodomain-interacting protein kinase 2 (Homo sapiens) (UniProt Q9H2X6). Briefly: Inhibition of HIPK2 (unknown origin) assessed as residual enzyme activity at 1 uM relative to untreated control.

Chain of Homeodomain-interacting protein kinase 2 (Homo sapiens) (Q9H2X6 whole entry, looked up): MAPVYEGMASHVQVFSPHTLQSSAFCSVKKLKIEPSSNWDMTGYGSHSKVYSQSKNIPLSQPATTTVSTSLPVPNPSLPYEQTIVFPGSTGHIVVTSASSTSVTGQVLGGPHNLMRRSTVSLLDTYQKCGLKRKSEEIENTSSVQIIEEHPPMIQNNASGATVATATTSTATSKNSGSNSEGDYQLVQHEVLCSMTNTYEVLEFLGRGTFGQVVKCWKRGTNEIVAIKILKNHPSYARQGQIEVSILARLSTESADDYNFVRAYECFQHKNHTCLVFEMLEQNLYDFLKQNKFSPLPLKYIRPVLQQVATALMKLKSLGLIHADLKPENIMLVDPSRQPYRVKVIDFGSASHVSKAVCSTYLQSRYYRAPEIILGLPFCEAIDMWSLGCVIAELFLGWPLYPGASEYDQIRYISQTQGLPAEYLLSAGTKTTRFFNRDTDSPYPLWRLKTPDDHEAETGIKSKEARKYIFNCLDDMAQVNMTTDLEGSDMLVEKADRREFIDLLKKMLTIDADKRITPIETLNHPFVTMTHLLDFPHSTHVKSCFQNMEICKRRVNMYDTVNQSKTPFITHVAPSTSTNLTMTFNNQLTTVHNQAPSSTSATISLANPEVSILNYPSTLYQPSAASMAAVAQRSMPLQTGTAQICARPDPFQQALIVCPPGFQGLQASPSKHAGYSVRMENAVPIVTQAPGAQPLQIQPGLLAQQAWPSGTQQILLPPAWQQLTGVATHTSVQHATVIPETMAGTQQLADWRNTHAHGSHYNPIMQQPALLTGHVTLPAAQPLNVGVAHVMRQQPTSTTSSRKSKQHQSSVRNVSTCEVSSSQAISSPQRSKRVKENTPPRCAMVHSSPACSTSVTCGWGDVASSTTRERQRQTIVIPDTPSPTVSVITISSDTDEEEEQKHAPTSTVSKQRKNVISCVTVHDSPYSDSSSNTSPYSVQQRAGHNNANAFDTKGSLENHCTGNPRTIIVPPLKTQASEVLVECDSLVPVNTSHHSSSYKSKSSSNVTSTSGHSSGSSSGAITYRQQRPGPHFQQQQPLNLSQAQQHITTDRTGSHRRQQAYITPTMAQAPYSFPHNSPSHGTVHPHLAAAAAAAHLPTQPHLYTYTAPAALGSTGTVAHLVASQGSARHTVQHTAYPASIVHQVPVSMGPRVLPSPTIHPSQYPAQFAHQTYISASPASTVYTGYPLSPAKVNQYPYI

With `Cc1cccc(-c2nn3c(c2-c2ccc(O)cc2)C(C)C(C)(C)C3)n1` (configuration not stated), the Activity is 6% in experiment [1] and more than 80% in experiment [2].
